Series [1] deals with human alpha-coronavirus 229E. The series can be described thus: organism not typed. Type of series: cell-based. The settings on record: Huh-7, 96 h, read-out: α-CoV 229E (Huh-7) EC50.
Series [2] is described as follows: Cytotoxicity in HeLa cells. Format: cell-based. The settings on record: human.
The subject of series [3] is SARS-CoV-2. The following applies: cited from earlier work.
Series [4] concerns 3CLpro. The settings on record: cited from earlier work.
Series [5] addresses human cathepsin L (Homo sapiens, UniProt P07711). The series can be described thus: human cathepsin L biochemical assay. The settings on record: 3CLpro versus cathepsin L.
The test system of series [6] is SARS-CoV-2. The following applies: cited from earlier work. This is another data set of the same source.
The subject of series [7] is SARS-CoV-2. The settings on record: monotherapy; cited from earlier work.
Series [8] deals with SARS-CoV-2-GHB-03021/2020. The settings on record: hamster, in vivo.

human cathepsin L, sequence (P07711 114-333): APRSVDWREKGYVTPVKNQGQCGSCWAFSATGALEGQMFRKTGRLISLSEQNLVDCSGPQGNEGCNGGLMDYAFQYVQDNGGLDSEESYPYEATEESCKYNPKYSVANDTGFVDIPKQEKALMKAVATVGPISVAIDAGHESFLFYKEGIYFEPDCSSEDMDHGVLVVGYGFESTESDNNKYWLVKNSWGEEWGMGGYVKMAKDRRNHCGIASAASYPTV

By EC50 is commonly meant the concentration at which the effect is half-maximal. The term CC50 denotes the concentration giving 50% cytotoxicity. As for `CCC(CC)COC(=O)[C@H](C)N[P@](=O)(OC[C@H]1O[C@@](C#N)(c2ccc3c(N)ncnn23)[C@H](O)[C@@H]1O)Oc1ccccc1` [Remdesivir], the concentration for a half-maximal effect (EC50) in series [1] stood at 14.5 ± 3.48 nM. This molecule also registered a CC50 in series [2] of over 5000 nM.
Consider `CN1CCN(C(=O)N[C@@H](Cc2ccccc2)C(=O)N[C@H](/C=C/S(=O)(=O)c2ccccc2)CCc2ccccc2)CC1` [K117777], for which, in series [3] (A549-ACE2 expressing TMPRSS2), the “antiviral effect when TMPRSS2 was expressed” value was “abolished”. Further, in series [3] (VeroE6, A549-ACE2 and HeLa-ACE2), the “inhibition of SARS-CoV-2 in cells” value is “potent inhibition”. The “inhibitory effect on the 3CLpro” value in series [4] was “lacks an inhibitory effect”.
Take `CC(C)C[C@H](NC(=O)OCc1ccccc1)C(=O)N[C@@H](CC1CCNC1=O)C(O)S(=O)(=O)[O-].[Na+]` (stereo partly shown) [GC-376]: the “selectivity against human cathepsin L in comparison with ALG-097111” value in series [5] is “significantly less selective”. In addition, in series [6], the “antiviral activity in the K18-hACE2 SARS-CoV-2 infection mouse model” value is “modest antiviral activity”. Besides, in series [7], the “antiviral effect in a mouse model of SARS-CoV-2 infection” value is listed as “failed to show a clear antiviral effect”.
Turning to `CC(C)C(=O)OC[C@H]1O[C@@H](n2ccc(NO)nc2=O)[C@H](O)[C@@H]1O` [EIDD-2801], in series [8], the “reduction in viral RNA copies per mg of lung tissue” value is listed as 2.0 log10 and the “reduction of infectious virus titers in the lungs” value amounted to 4.1 log10 TCID50 per mg.

Source of the values: publication PMC7997389 (Biochemical and Biophysical Research Communications, 2021).
